Data as given in patent US10800725B2, “Arylpropionyl-triketone antibacterial agents” (priority 2010, dated 2020).
Converted amounts (≈) assume the structure as drawn.

Tests used:
[1] = test system: Streptococcus pyogenes ATCC 12344; assay: MIC, spiral gradient endpoint assay (GC II agar, 5% CO2); settings: ATCC12344, read-out: MIC S. pyogenes 12344
[2] = test system: Moraxella catarrhalis ATCC 25238; assay: as above; settings: ATCC25238, read-out: MIC M. catarrhalis 25238
[3] = test system: Francisella tularensis SCHU4; assay: microbe, parasite or virus in culture; format: cell-based; settings: SCHU4, read-out: MIC F. tularensis SCHU4
[4] = molecular target: S. aureus RNA polymerase core enzyme + σA (Staphylococcus aureus (strain NCTC 8325 / PS 47), UniProt P47768+Q2G0N5); assay: Fluorescence-detected RNA polymerase assay, S. aureus RNAP; format: biochemical
Experimental: (§1) Fluorescence-detected RNA polymerase assays with E. coli RNA polymerase were performed by a modification of the procedure of Kuhlman et al., 2004 [Kuhlman, P., Duff, H. & Galant, A. (2004) A fluorescence-based assay for multisubunit DNA-dependent RNA polymerases. Anal. Biochem. 324, 183-190]. Reaction mixtures contained (20 μl): 0-100 nM test compound, 75 nM E. coli RNA polymerase σ^70 holoenzyme, 20 nM 384 bp DNA fragment containing the bacteriophage T4 N25 promoter, 100 μM ATP, 100 μM GTP, 100 μM UTP, 100 μM CTP, 50 mM Tris-HCl, pH 8.0, 100 mM KCl, 10 mM MgCl2, 1 mM DTT, 10 μg/ml bovine serum albumin, and 5.5% glycerol. Reaction components other than DNA and NTPs were pre-incubated for 10 min at 37° C. Reactions were carried out by addition of DNA and incubation for 5 min at 37° C., followed by addition of NTPs and incubation for 60 min at 37° C. DNA was removed by addition of 1 μl 5 mM CaCl2 and 2 U DNaseI (Ambion, Inc.), followed by incubation for 90 min at 37° C. RNA was quantified by addition of 100 μl RiboGreen RNA Quantitation Reagent (Invitrogen, Inc.; 1:500 dilution in Tris-HCl, pH 8.0, 1 mM EDTA), followed by incubation for 10 min at 25° C., followed by measurement of fluorescence intensity [excitation wavelength=485 nm and emission wavelength=535 nm; QuantaMaster QM1 spectrofluorometer (PTI, Inc.)]. IC50 is defined as the concentration of inhibitor resulting in 50% inhibition of RNA polymerase activity.
(§2) Fluorescence-detected RNA polymerase assays with S. aureus RNA polymerase were performed as in Example 21.1, using reaction mixtures containing (20 μl): 0-100 nM test compound, 75 nM S. aureus RNA polymerase core enzyme, 300 nM S. aureus σ^A, 20 nM 384 bp DNA fragment containing the bacteriophage T4 N25 promoter, 100 μM ATP, 100 μM GTP, 100 μM UTP, 100 μM CTP, 40 mM Tris-HCl, pH 8.0, 80 mM NaCl, 5 mM MgCl2, 2.5 mM DTT, and 12.7% glycerol. IC50 is defined as the concentration of inhibitor resulting in 50% inhibition of RNA polymerase activity.

[5] = molecular target: M. tuberculosis RNA polymerase core enzyme + σA (Mycobacterium tuberculosis (strain ATCC 25618 / H37Rv), UniProt P9WGY7+P9WGY9); assay: Fluorescence-detected RNA polymerase assay, M. tuberculosis RNAP; format: biochemical
Experimental: as §1
as §2, with “M. tuberculosis” for “S. aureus”

[6] = test system: Mycobacterium tuberculosis H37Rv; assay: MIC, microplate Alamar Blue assay; settings: read-out: MIC M. tuberculosis H37Rv
[7] = test system: Enterococcus faecalis ATCC 19433; assay: MIC, spiral gradient endpoint assay; settings: ATCC19433, read-out: MIC E. faecalis 19433
[8] = test system: Bacillus anthracis Vollum-1b; assay: microbe, parasite or virus in culture; format: cell-based; settings: VOLLUM1B, read-out: MIC B. anthracis Vollum-1b
[9] = molecular target: E. coli RNA polymerase σ70 holoenzyme (Escherichia coli (strain K12), UniProt P0A8T7+P0A8V2); assay: Fluorescence-detected RNA polymerase assay, E. coli RNAP; format: biochemical
Experimental: as §1

[10] = test system: Streptococcus pneumoniae ATCC 49619; assay: MIC, spiral gradient endpoint assay (GC II agar, 5% CO2); settings: ATCC49619, read-out: MIC S. pneumoniae 49619
[11] = test system: Escherichia coli D21f2tolC; assay: MIC, spiral gradient endpoint assay; settings: read-out: MIC E. coli D21f2tolC
[12] = test system: Staphylococcus aureus ATCC 12600; assay: MIC, spiral gradient endpoint assay; settings: ATCC12600, read-out: MIC S. aureus 12600

| Compound | MIC [1] | MIC [2] | MIC [3] | IC50 [4] | IC50 [5] | MIC [6] | MIC [7] | MIC [8] | IC50 [9] | MIC [10] | MIC [11] | MIC [12] |
| --- | --- | --- | --- | --- | --- | --- | --- | --- | --- | --- | --- | --- |
| CC(C)CCC1=C(O)C(CCC(C)C)(CCC(C)C)C(=O)C(C(=O)CCc2cccc(Cl)c2)=C1O [Compound 2, 3,5-dihydroxy-2-(3-(3-chlorophenyl)propanoyl)-4,6,6-triisopentylcyclohexa-2,4-dienone] | 19 µg/mL (≈ 37.8 µM) | 19 µg/mL (≈ 37.8 µM) | > 50 µg/mL | 5.9 µM | 2200 nM | 50 µg/mL (≈ 99.4 µM) | 1 µg/mL (≈ 1.99 µM) | 0.098 µg/mL (≈ 0.195 µM) | 2500 nM | 12 µg/mL (≈ 23.9 µM) | 15 µg/mL (≈ 29.8 µM) | 0.5 µg/mL (≈ 0.994 µM) |
| CCCC1=C(O)C(CCC)(CCC)C(=O)C(C(=O)CCc2ccc(Cl)cc2)=C1O [Compound 13, 3,5-dihydroxy-2-(3-(4-chlorophenyl)propanoyl)-4,6,6-tripropylcyclohexa-2,4-dienone] |  |  |  | 5.3 µM | 1400 nM | > 50 µg/mL | 2.2 µg/mL (≈ 5.25 µM) |  | 7800 nM |  | 0.8 µg/mL (≈ 1.91 µM) | 0.7 µg/mL (≈ 1.67 µM) |
| CC(C)CCC1=C(O)C(CCC(C)C)(CCC(C)C)C(=O)C(C(=O)CCc2ccccc2Cl)=C1O [Compound 1, 3,5-dihydroxy-2-(3-(2-chlorophenyl)propanoyl)-4,6,6-triisopentylcyclohexa-2,4-dienone] | 19 µg/mL (≈ 37.8 µM) | > 40 µg/mL | 6.25 µg/mL (≈ 12.4 µM) | 5.7 µM | 1200 nM | 50 µg/mL (≈ 99.4 µM) | 2 µg/mL (≈ 3.98 µM) | 0.049 µg/mL (≈ 0.0974 µM) | 2100 nM | 15 µg/mL (≈ 29.8 µM) | 24 µg/mL (≈ 47.7 µM) | 0.6 µg/mL (≈ 1.19 µM) |
| CC(C)CCC1=C(O)C(CCC(C)C)(CCC(C)C)C(=O)C(C(=O)CCc2ccc(Cl)cc2)=C1O [Compound 3, 3,5-dihydroxy-2-(3-(4-chlorophenyl)propanoyl)-4,6,6-triisopentylcyclohexa-2,4-dienone] | 19 µg/mL (≈ 37.8 µM) | 19 µg/mL (≈ 37.8 µM) | > 50 µg/mL | 2.4 µM | 770 nM | 50 µg/mL (≈ 99.4 µM) | 1 µg/mL (≈ 1.99 µM) | 0.049 µg/mL (≈ 0.0974 µM) | 630 nM | 19 µg/mL (≈ 37.8 µM) | 8 µg/mL (≈ 15.9 µM) | 0.4 µg/mL (≈ 0.795 µM) |
| Cc1cccc(CCC(=O)C2=C(O)C(CCC(C)C)=C(O)C(CCC(C)C)(CCC(C)C)C2=O)c1 [Compound 8, 3,5-dihydroxy-2-(3-(3-methylphenyl)propanoyl)-4,6,6-triisopentylcyclohexa-2,4-dienone] |  |  |  | 2.2 µM | 600 nM | > 50 µg/mL | 1 µg/mL (≈ 2.07 µM) |  | 420 nM |  | 12 µg/mL (≈ 24.9 µM) | 4 µg/mL (≈ 8.29 µM) |
| COc1ccc(CCC(=O)C2=C(O)C(CCC(C)C)=C(O)C(CCC(C)C)(CCC(C)C)C2=O)cc1 [Compound 6, 3,5-dihydroxy-2-(3-(4-methoxyphenyl)propanoyl)-4,6,6-triisopentylcyclohexa-2,4-dienone] | 15 µg/mL (≈ 30.1 µM) | 19 µg/mL (≈ 38.1 µM) | > 50 µg/mL | 3.4 µM | 1200 nM | 50 µg/mL (≈ 100 µM) | 12 µg/mL (≈ 24.1 µM) | 0.098 µg/mL (≈ 0.197 µM) | 1800 nM | 5.6 µg/mL (≈ 11.2 µM) | 6 µg/mL (≈ 12 µM) | 0.6 µg/mL (≈ 1.2 µM) |
| Cc1ccccc1CCC(=O)C1=C(O)C(CCC(C)C)=C(O)C(CCC(C)C)(CCC(C)C)C1=O [Compound 7, 3,5-dihydroxy-2-(3-(2-methylphenyl)propanoyl)-4,6,6-triisopentylcyclohexa-2,4-dienone] |  |  |  | 1.1 µM | 170 nM | 50 µg/mL (≈ 104 µM) | 1 µg/mL (≈ 2.07 µM) |  | 210 nM |  | 7 µg/mL (≈ 14.5 µM) | 0.5 µg/mL (≈ 1.04 µM) |
